Reference: patent publication US8114410B2, “Composition and methods for the inhibition of membrane fusion by paramyxoviruses” (priority 2001, dated 2012)

Key:
[1] = test system: HeV-mediated fusion (HeLa cells expressing HeV F and G, U373 target cells)
[2] = test system: NiV-mediated fusion (HeLa cells expressing NiV F and G, U373 target cells)

Question: Which results are given for `CC[C@H](C)[C@H](NC(=O)[C@H](Cc1ccc(O)cc1)NC(=O)[C@H](CC(=O)O)NC(=O)[C@H](CCCCN)NC(=O)[C@H](CO)NC(=O)[C@H](CCC(N)=O)NC(=O)[C@H](CCC(N)=O)NC(=O)[C@H](CC(C)C)NC(=O)[C@H](CO)NC(=O)[C@H](CCC(N)=O)NC(=O)[C@H](CC(N)=O)NC(=O)[C@H](CCSC)NC(=O)[C@H](CO)NC(=O)[C@H](CO)NC(=O)[C@@H](NC(=O)[C@H](CCC(N)=O)NC(=O)[C@H](CO)NC(=O)[C@H](CO)NC(=O)[C@@H](NC(=O)[C@H](CC(=O)O)NC(=O)[C@@H](NC(=O)[C@H](CCCCN)NC(=O)[C@H](CC(=O)O)NC(=O)[C@@H](NC(=O)[C@H](Cc1ccccc1)NC(=O)[C@@H](NC(=O)[C@@H]1CCCN1C(=O)[C@@H]1CCCN1)C(C)C)[C@@H](C)O)C(C)C)[C@@H](C)CC)[C@@H](C)CC)C(=O)N[C@@H](CCCCN)C(=O)N[C@@H](CCC(=O)O)C(=O)N[C@@H](C)C(=O)N[C@@H](CCC(N)=O)C(=O)N[C@@H](CCCNC(=N)N)C(=O)N[C@@H](CC(C)C)C(=O)N[C@@H](CC(C)C)C(=O)N[C@@H](CC(=O)O)C(=O)N[C@H](C(=O)N[C@H](C(=O)N[C@@H](CC(N)=O)C(=O)N1CCC[C@H]1C(=O)N[C@@H](CO)C(=O)N[C@@H](CC(C)C)C(=O)O)C(C)C)[C@@H](C)O` [NiV FC1]?
Answer: IC50 [1]: 5.2 to 5.8 nM; Inhibition of HeV-mediated fusion (in words) [1]: completely inhibitory in the nM range; IC50 [2]: 5.2 to 5.8 nM; Inhibition of NiV-mediated fusion (in words) [2]: completely inhibitory in the nM range
